This is an account of results in patent publication US20050214378A1, “Stealth lipid nanocapsules, methods for the preparation thereof and use thereof as a carrier for active principle(s)” (ETHYPHARM, priority 2002, published 2005).

This data set in a line: Solubility of paclitaxel and docetaxel in triglycerides. Particulars: no recrystallization at room temperature; for Solubility in Labrafac CC: triglyceride Labrafac CC, C8 content 56.7%; for Solubility in Miglyol 810 N: triglyceride Miglyol 810 N, C8 content 70.4%; for Solubility in Tricaprylin: triglyceride Tricaprylin, C8 >99%. The class given is physicochemical. As to the method:
A solution of docetaxel or paclitaxel in triglycerides, which will constitute the inner core of the lipid nanocapsules, is prepared by dissolving the drug into the triglyceride at 75° C. The amount of drug is adjusted in order to obtain solutions that will not recrystallize upon cooling to room temperature.

Turning to `CC(=O)O[C@@]12CO[C@@H]1C[C@H](O)[C@@]1(C)C(=O)[C@H](O)C3=C(C)[C@@H](OC(=O)[C@H](O)[C@@H](NC(=O)OC(C)(C)C)c4ccccc4)C[C@@](O)([C@@H](OC(=O)c4ccccc4)[C@H]21)C3(C)C` [Docetaxel, docetaxel], the “Solubility in Labrafac CC” value is recorded as 2 % w/w, the “Solubility in Miglyol 810 N” value is 3.9 % w/w and the “Solubility in Tricaprylin” value is listed as 7 % w/w.
Take `CC(=O)O[C@H]1C(=O)[C@@]2(C)[C@H]([C@H](OC(=O)c3ccccc3)[C@]3(O)C[C@H](OC(=O)[C@H](O)[C@@H](NC(=O)c4ccccc4)c4ccccc4)C(C)=C1C3(C)C)[C@]1(OC(C)=O)CO[C@@H]1C[C@@H]2O` [Paclitaxel, paclitaxel]: the “Solubility in Labrafac CC” value worked out at 1.6 % w/w, the “Solubility in Miglyol 810 N” value is 2.7 % w/w and the “Solubility in Tricaprylin” value amounted to 6 % w/w.
